# ChEMBL document CHEMBL1201862, “PubChem BioAssay data set” (2004)
#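 Grown in 96-well plates, cells were treated for 48 hours with each compound at five concentrations. Insufficient inhibition: endpoint recorded as highest concentration tested. The concentration for 50% growth inhibition is given as GI50.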 Calls of active or inactive are those of the source. Rule as the data show it: active = GI50 up to about 1.1 µM and inactive = higher.
# What was measured:
# Test in all cases: inhibition of tumour cell growth, NCI panel, 48 h
# 786-0 = tested on: 786-0
# A498 = tested on: A498
# A549 = tested on: A549
# ACHN = tested on: ACHN
# CAKI-1 = tested on: CAKI-1
# CCRF-CEM = tested on: CCRF-CEM
# COLO 205 = tested on: COLO 205
# DLD-1 = tested on: DLD-1
# DMS-114 = tested on: DMS-114
# DMS-273 = tested on: DMS-273
# EKVX = tested on: EKVX
# HCC 2998 = tested on: HCC 2998
# HCT-116 = tested on: HCT-116
# HCT-15 = tested on: HCT-15
# HL-60 = tested on: HL-60
# HOP-18 = tested on: HOP-18
# HOP-62 = tested on: HOP-62
# HOP-92 = tested on: HOP-92
# HT-29 = tested on: HT-29
# IGROV-1 = tested on: IGROV-1
# K562 = tested on: K562
# KM-20L2 = tested on: KM-20L2
# KM12 = tested on: KM12
# LOX IMVI = tested on: LOX IMVI
# LXFL 529 = tested on: LXFL 529
# M14 = tested on: M14
# M19-MEL = tested on: M19-MEL
# MOLT-4 = tested on: MOLT-4
# Malme-3M = tested on: Malme-3M
# NCI-H226 = tested on: NCI-H226
# NCI-H23 = tested on: NCI-H23
# NCI-H460 = tested on: NCI-H460
# NCI-H522 = tested on: NCI-H522
# OVCAR-3 = tested on: OVCAR-3
# OVCAR-4 = tested on: OVCAR-4
# OVCAR-5 = tested on: OVCAR-5
# OVCAR-8 = tested on: OVCAR-8
# RPMI-8226 = tested on: RPMI-8226
# RXF 393 = tested on: RXF 393
# SF-268 = tested on: SF-268
# SF-295 = tested on: SF-295
# SF-539 = tested on: SF-539
# SK-MEL-28 = tested on: SK-MEL-28
# SK-MEL-2 = tested on: SK-MEL-2
# SK-MEL-5 = tested on: SK-MEL-5
# SK-OV-3 = tested on: SK-OV-3
# SN12C = tested on: SN12C
# SNB-19 = tested on: SNB-19
# SNB-75 = tested on: SNB-75
# SNB-78 = tested on: SNB-78
# SW-620 = tested on: SW-620
# TK-10 = tested on: TK-10
# U-251 = tested on: U-251
# UACC-257 = tested on: UACC-257
# UACC-62 = tested on: UACC-62
# UO-31 = tested on: UO-31
# XF498 = tested on: XF498
# SR = tested on: SR
compound,measurement,setting,value
COc1cc(CC2c3cc(OC)c(OC)cc3CCN2C)c(Oc2cc3c(cc2OC)-c2c(OC)c(OC)c(OC)c4c2C(C3)N(C)CC4)cc1OC (configuration not stated),GI50,786-0,8.39 µM (inactive)
same,GI50,A498,15.3 µM (inactive)
same,GI50,A549,15.9 µM (inactive)
same,GI50,ACHN,15.8 µM (inactive)
same,GI50,CAKI-1,14.8 µM (inactive)
same,GI50,CCRF-CEM,16.4 µM (inactive)
same,GI50,COLO 205,7.23 µM (inactive)
same,GI50,DLD-1,15.5 µM (inactive)
same,GI50,DMS-114,12.1 µM (inactive)
same,GI50,DMS-273,12.5 µM (inactive)
same,GI50,EKVX,16.6 µM (inactive)
same,GI50,HCC 2998,5.32 µM (inactive)
same,GI50,HCT-116,11.7 µM (inactive)
same,GI50,HCT-15,10.1 µM
same,GI50,HL-60,9.29 µM (inactive)
same,GI50,HOP-18,16.4 µM (inactive)
same,GI50,HOP-62,17.3 µM (inactive)
same,GI50,HOP-92,6.53 µM (inactive)
same,GI50,HT-29,8.77 µM (inactive)
same,GI50,IGROV-1,14.3 µM (inactive)
same,GI50,K562,2.63 µM (inactive)
same,GI50,KM-20L2,5.93 µM (inactive)
same,GI50,KM12,12.7 µM (inactive)
same,GI50,LOX IMVI,6.73 µM (inactive)
same,GI50,LXFL 529,13.7 µM (inactive)
same,GI50,M14,2.4 µM (inactive)
same,GI50,M19-MEL,15 µM (inactive)
same,GI50,MOLT-4,4.52 µM (inactive)
same,GI50,Malme-3M,2.49 µM (inactive)
same,GI50,NCI-H226,17.2 µM (inactive)
same,GI50,NCI-H23,17.1 µM (inactive)
same,GI50,NCI-H460,15.6 µM (inactive)
same,GI50,NCI-H522,11.7 µM (inactive)
same,GI50,OVCAR-3,12.3 µM (inactive)
same,GI50,OVCAR-4,16 µM (inactive)
same,GI50,OVCAR-5,16.2 µM (inactive)
same,GI50,OVCAR-8,14.9 µM (inactive)
same,GI50,RPMI-8226,14 µM (inactive)
same,GI50,RXF 393,2.9 µM (inactive)
same,GI50,SF-268,15 µM (inactive)
same,GI50,SF-295,14.6 µM (inactive)
same,GI50,SF-539,13 µM (inactive)
same,GI50,SK-MEL-28,9.64 µM (inactive)
same,GI50,SK-MEL-2,14.6 µM (inactive)
same,GI50,SK-MEL-5,4.33 µM (inactive)
same,GI50,SK-OV-3,19.7 µM (inactive)
same,GI50,SN12C,14 µM (inactive)
same,GI50,SNB-19,19.4 µM (inactive)
same,GI50,SNB-75,11.4 µM (inactive)
same,GI50,SNB-78,17.4 µM (inactive)
same,GI50,SW-620,15.6 µM (inactive)
same,GI50,TK-10,15.4 µM (inactive)
same,GI50,U-251,12.6 µM (inactive)
same,GI50,UACC-257,6.31 µM (inactive)
same,GI50,UACC-62,15.2 µM (inactive)
same,GI50,UO-31,7.93 µM (inactive)
same,GI50,XF498,13 µM (inactive)
COc1ccc(-c2cc(O)c3cc4c(cc3n2)OCO4)c(OC)c1OC,GI50,786-0,> 100 µM (inactive)
same,GI50,A549,> 100 µM (inactive)
same,GI50,ACHN,76.2 µM (inactive)
same,GI50,CAKI-1,> 100 µM (inactive)
same,GI50,CCRF-CEM,76.9 µM (inactive)
same,GI50,COLO 205,53.1 µM (inactive)
same,GI50,DLD-1,> 100 µM (inactive)
same,GI50,DMS-114,29.4 µM (inactive)
same,GI50,DMS-273,38.2 µM (inactive)
same,GI50,EKVX,> 100 µM (inactive)
same,GI50,HCC 2998,> 100 µM (inactive)
same,GI50,HCT-116,> 100 µM (inactive)
same,GI50,HCT-15,> 100 µM
same,GI50,HL-60,37.3 µM (inactive)
same,GI50,HOP-18,96.6 µM (inactive)
same,GI50,HOP-62,87.1 µM (inactive)
same,GI50,HOP-92,70.3 µM (inactive)
same,GI50,HT-29,> 100 µM (inactive)
same,GI50,IGROV-1,> 100 µM (inactive)
same,GI50,K562,43.9 µM (inactive)
same,GI50,KM-20L2,> 100 µM (inactive)
same,GI50,KM12,68.9 µM (inactive)
same,GI50,LOX IMVI,> 100 µM (inactive)
same,GI50,LXFL 529,> 100 µM (inactive)
same,GI50,M14,68.1 µM (inactive)
same,GI50,M19-MEL,95.1 µM (inactive)
same,GI50,MOLT-4,62.7 µM (inactive)
same,GI50,Malme-3M,40.4 µM (inactive)
same,GI50,NCI-H226,> 100 µM (inactive)
same,GI50,NCI-H23,> 100 µM (inactive)
same,GI50,NCI-H460,33.6 µM (inactive)
same,GI50,NCI-H522,96.2 µM (inactive)
same,GI50,OVCAR-3,> 100 µM (inactive)
same,GI50,OVCAR-4,> 100 µM (inactive)
same,GI50,OVCAR-8,> 100 µM (inactive)
same,GI50,RPMI-8226,82.8 µM (inactive)
same,GI50,RXF 393,> 100 µM (inactive)
same,GI50,SF-268,> 100 µM (inactive)
same,GI50,SF-295,76.6 µM (inactive)
same,GI50,SF-539,> 100 µM (inactive)
same,GI50,SK-MEL-28,96.6 µM (inactive)
same,GI50,SK-MEL-2,> 100 µM (inactive)
same,GI50,SK-MEL-5,41.5 µM (inactive)
same,GI50,SK-OV-3,50.8 µM (inactive)
same,GI50,SN12C,> 100 µM (inactive)
same,GI50,SNB-19,> 100 µM (inactive)
same,GI50,SNB-75,27.7 µM (inactive)
same,GI50,SNB-78,> 100 µM (inactive)
same,GI50,SR,24.4 µM (inactive)
same,GI50,SW-620,84.9 µM (inactive)
same,GI50,TK-10,> 100 µM (inactive)
same,GI50,U-251,> 100 µM (inactive)
same,GI50,UACC-62,47.6 µM (inactive)
same,GI50,UO-31,> 100 µM (inactive)
same,GI50,XF498,66.5 µM (inactive)
